Source: ChEMBL document CHEMBL5360581, “Discovery of a novel dual functional phenylpyrazole-styryl hybrid that induces apoptotic and autophagic cell death in bladder cancer cells” (Eur J Med Chem, 2023)
The source made the active and inactive calls. The calls are words filed in the database; no cut-off is given here.

Columns and labels:
[1] = system: SW-620; assay: Antiproliferative activity against human SW620 cells assessed as reduction in cell viability at 20 uM measured for 72 hrs by MTT assay; format: functional, cell-based
[2] = system: A549; assay: Antiproliferative activity against human A549 cells assessed as reduction in cell viability at 20 uM measured for 72 hrs by MTT assay; format: functional, cell-based
[3] = system: EJ-28; assay: Antiproliferative activity against human EJ-28 cells assessed as reduction in cell viability at 20 uM measured for 72 hrs by MTT assay; format: functional, cell-based
[4] = system: A549; assay: Cytotoxicity against human A549 cells assessed inhibition of cell growth incubated for 72 hrs by MTT assay; format: functional, cell-based; settings: A549, 72 h
[5] = system: HT-1080; assay: Cytotoxicity against human HT-1080 cells assessed inhibition of cell growth incubated for 72 hrs by MTT assay; format: functional, cell-based; settings: HT-1080, 72 h
[6] = system: MCF7; assay: Cytotoxicity against human MCF7 cells assessed inhibition of cell growth incubated for 72 hrs by MTT assay; format: functional, cell-based; settings: MCF7, 72 h
[7] = Selectivity index, ratio of IC50 for cytotoxicity against human NHDF cells to IC50 for cytotoxicity against human A549 cells; format: toxicity, cell-based; settings: NHDF cells and A549 cells, read-out: Ratio IC50
[8] = system: EJ-28; assay: Inhibition of colony formation in human EJ-28 cells at 2.5 to 10 uM incubated for 10 days by crystal violet staining based assay; format: functional, cell-based; settings: dose 2.5-10 µM, time 10.0 day
[9] = system: EJ-28; assay: Inhibition of colony formation in human EJ-28 cells at 1.25 uM incubated for 10 days by crystal violet staining based assay; format: functional, cell-based; settings: time 10.0 day
[10] = system: EJ-28; assay: Induction of cell cycle arrest in human EJ-28 cells assessed as accumulation of cells at S phase at 1.25 uM incubated for 48 hrs by propidium iodide staining based flow cytometry (reference value: 30%); format: functional
[11] = system: EJ-28; assay: Induction of cell cycle arrest in human EJ-28 cells assessed as accumulation of cells at S phase at 2.5 uM incubated for 48 hrs by propidium iodide staining based flow cytometry (reference value: 30%); format: functional
[12] = system: EJ-28; assay: Induction of cell cycle arrest in human EJ-28 cells assessed as accumulation of cells at S phase at 10 uM incubated for 48 hrs by propidium iodide staining based flow cytometry (reference value: 30%); format: functional
[13] = system: EJ-28; assay: Induction of cell cycle arrest in human EJ-28 cells assessed as accumulation of cells at G2/M phase at 1.25 uM incubated for 48 hrs by propidium iodide staining based flow cytometry (reference value: 20%); format: functional
[14] = system: EJ-28; assay: Induction of cell cycle arrest in human EJ-28 cells assessed as accumulation of cells at G2/M phase at 5 uM incubated for 48 hrs by propidium iodide staining based flow cytometry (reference value: 20%); format: functional
[15] = system: EJ-28; assay: Induction of apoptosis in human EJ-28 cells assessed as downregulation of procaspase-3 expression incubated for 24 to 72 hrs by Western blotting analysis; format: functional, cell-based; settings: time 24-72 hrs
[16] = system: EJ-28; assay: Induction of apoptosis in human EJ-28 cells assessed as upregulation of Bcl-2 expression incubated for 24 hrs by Western blotting analysis; format: functional, cell-based
[17] = system: EJ-28; assay: Induction of apoptosis in human EJ-28 cells assessed as upregulation of Mcl-1 expression incubated for 24 hrs by Western blotting analysis; format: functional, cell-based
[18] = system: EJ-28; assay: Induction of apoptosis in human EJ-28 cells assessed as upregulation of phosphorylated Bcl-2 level incubated for 24 to 72 hrs by Western blotting analysis; format: functional, cell-based; settings: time 24-72 hrs
[19] = system: EJ-28; assay: Induction of apoptosis in human EJ-28 cells assessed as upregulation of cleaved caspases-8 expression by Western blotting analysis; format: functional, cell-based; settings: time 24-72 hrs
[20] = system: EJ-28; assay: Induction of apoptosis in human EJ-28 cells assessed as upregulation of NOXA expression incubated for 24 hrs by Western blotting analysis; format: functional, cell-based
[21] = system: EJ-28; assay: Induction of apoptosis in human EJ-28 cells assessed as upregulation of cleaved bid expression incubated for 24 hrs by Western blotting analysis; format: functional, cell-based
[22] = system: EJ-28; assay: Induction of apoptosis in human EJ-28 cells assessed as upregulation of PUMA expression incubated for 48 hrs by Western blotting analysis; format: functional, cell-based
[23] = system: EJ-28; assay: Induction of apoptosis in human EJ-28 cells assessed as upregulation of Bak expression incubated for 24 hrs by Western blotting analysis; format: functional, cell-based
[24] = system: EJ-28; assay: Induction of apoptosis in human EJ-28 cells assessed as upregulation of Bax expression incubated for 24 hrs by Western blotting analysis; format: functional, cell-based
[25] = system: EJ-28; assay: Induction of apoptosis in human EJ-28 cells assessed as upregulation of Bax expression incubated for 48 to 72 hrs by Western blotting analysis; format: functional, cell-based; settings: time 48-72 hrs
[26] = system: EJ-28; assay: Induction of autophagy in human EJ-28 cells assessed as increase in green fluorescence intensity at 5 to 12.5 uM incubated for 24 hrs by flow cytometry analysis; format: functional, cell-based; settings: dose 5-12.5 µM
[27] = system: EJ-28; assay: Induction of autophagy in human EJ-28 cells assessed as autophagic flux at 5 to 12.5 uM incubated for 36 to 48 hrs by flow cytometry analysis; format: functional, cell-based; settings: dose 5-12.5 µM, time 36-48 hrs
[28] = system: EJ-28; assay: Induction of autophagy in human EJ-28 cells assessed as upregulation of LC3B-2 expression at 5 to 12.5 uM incubated for 24 to 72 hrs by Western blot analysis; format: functional, cell-based; settings: dose 5-12.5 µM, time 24-72 hrs
[29] = system: EJ-28; assay: Induction of autophagy in human EJ-28 cells assessed as upregulation of Atg3 expression at 5 to 12.5 uM incubated for 24 to 72 hrs by Western blot analysis; format: functional, cell-based; settings: dose 5-12.5 µM, time 24-72 hrs
[30] = system: EJ-28; assay: Induction of autophagy in human EJ-28 cells assessed as upregulation of Atg7 expression at 5 to 12.5 uM incubated for 24 to 72 hrs by Western blot analysis; format: functional, cell-based; settings: dose 5-12.5 µM, time 24-72 hrs
[31] = system: EJ-28; assay: Induction of autophagy in human EJ-28 cells assessed as downregulation of EGFR expression at 5 to 12.5 uM incubated for 24 hrs by Western blot analysis; format: functional, cell-based; settings: dose 5-12.5 µM
[32] = system: EJ-28; assay: Induction of autophagy in human EJ-28 cells assessed as upregulation of AKT expression at 5 to 12.5 uM incubated for 24 hrs by Western blot analysis; format: functional, cell-based; settings: dose 5-12.5 µM
[33] = system: EJ-28; assay: Induction of autophagy in human EJ-28 cells assessed as upregulation of AKT expression at 5 to 12.5 uM incubated for 48 to 72 hrs by Western blot analysis; format: functional, cell-based; settings: dose 5-12.5 µM, time 48-72 hrs
[34] = system: HEK293; assay: Cytotoxicity against HEK293 cells expressing EGFR assessed as inhibition of cell growth incubated for 24 to 72 hrs; format: toxicity, cell-based; settings: human, time 24-72 hrs
[35] = Toxicity in Zebrafish embryo assessed as mortality at 12.5 to 50 uM administered for 4 hrs post fertilization and measured after 72 hours post fertilization; parameters: species or system Danio rerio; settings: in vivo, dose 12.5-50 µM
[36] = Toxicity in Zebrafish embryo assessed as body curvature at 12.5 uM administered for 4 hrs post fertilization and measured after 3 days post fertilization; parameters: species or system Danio rerio; settings: in vivo, 72 h, time 3 day
[37] = Toxicity in Zebrafish embryo assessed as mild bradycardia at 50 uM administered for 4 hrs post fertilization and measured after 3 days post fertilization; parameters: species or system Danio rerio; settings: in vivo, 72 h, time 3 day
[38] = Toxicity in Zebrafish embryo assessed as mild bradycardia at 12.5 to 25 uM administered for 4 hrs post fertilization and measured after 3 days post fertilization; parameters: species or system Danio rerio; settings: in vivo, 72 h, dose 12.5-25 µM, time 3 day

Question: Which Activity [1] does the source give for O=[N+]([O-])c1cccc(/C=C/c2cc(-c3cc(Cl)ccc3O)n(-c3ccccc3)n2)c1 here?
Answer: Its Activity is “Active”.

Question: And the Activity [2]?
Answer: Its Activity is “Active”.

Question: And the Activity [3]?
Answer: Its Activity is “Active”.

Question: What about the IC50 [4] of the same compound?
Answer: The IC50 was 15.1 µM.

Question: And the IC50 [5]?
Answer: Its IC50 is 13 µM.

Question: And the IC50 [6]?
Answer: The IC50 was 8.8 µM.

Question: And the selectivity ratio [7]?
Answer: Its selectivity ratio is 2.6.

Question: And the inhibition [8]?
Answer: The inhibition was “Active”.

Question: What about the inhibition [9] of the same compound?
Answer: The inhibition was “inactive”.

Question: What about the Activity [10] of the same compound?
Answer: Its Activity is 27%.

Question: What about the Activity [11] of the same compound?
Answer: The Activity was 16%.

Question: And the Activity [12]?
Answer: Its Activity is 23%.

Question: And the Activity [13]?
Answer: Its Activity is 18%.

Question: What about the Activity [14] of the same compound?
Answer: Its Activity is 19%.

Question: What about the Activity [15] of the same compound?
Answer: The Activity was “Active”.

Question: And the Activity [16]?
Answer: The Activity was “Active”.

Question: And the Activity [17]?
Answer: Its Activity is “Active”.

Question: What about the Activity [18] of the same compound?
Answer: Its Activity is “Active”.

Question: And the Activity [19]?
Answer: Its Activity is “Dose-Dependent Effect”.

Question: What about the Activity [20] of the same compound?
Answer: The Activity was “Active”.

Question: And the Activity [21]?
Answer: Its Activity is “Active”.

Question: And the Activity [22]?
Answer: The Activity was “Active”.

Question: What about the Activity [23] of the same compound?
Answer: Its Activity is “Active”.

Question: And the Activity [24]?
Answer: Its Activity is “inactive”.

Question: What about the Activity [25] of the same compound?
Answer: The Activity was “Active”.

Question: And the Activity [26]?
Answer: The Activity was “Active”.

Question: And the Activity [27]?
Answer: The Activity was “Active”.

Question: And the Activity [28]?
Answer: The Activity was “Active”.

Question: What about the Activity [29] of the same compound?
Answer: Its Activity is “inactive”.

Question: And the Activity [30]?
Answer: Its Activity is “inactive”.

Question: And the Activity [31]?
Answer: Its Activity is “Active”.

Question: What about the Activity [32] of the same compound?
Answer: The Activity was “Active”.

Question: What about the Activity [33] of the same compound?
Answer: The Activity was “Active”.

Question: What about the Activity [34] of the same compound?
Answer: The Activity was “Non-Toxic”.

Question: And the Activity [35]?
Answer: The Activity was “Non-Toxic”.

Question: What about the Activity [36] of the same compound?
Answer: The Activity was “Non-Toxic”.

Question: And the Activity [37]?
Answer: The Activity was “Toxic”.

Question: What about the Activity [38] of the same compound?
Answer: The Activity was “Non-Toxic”.
